{"source": "patent US9346786B2", "about": "“Pyrrolidine compounds” (Hoffmann-La Roche Inc., priority 2009, dated 2016)", "note": "pKi: −log10 of the molar value."}
{"target": "recombinant human NK3 receptor (Homo sapiens (Human), UniProt P29371)", "sequence (P29371 whole entry)": "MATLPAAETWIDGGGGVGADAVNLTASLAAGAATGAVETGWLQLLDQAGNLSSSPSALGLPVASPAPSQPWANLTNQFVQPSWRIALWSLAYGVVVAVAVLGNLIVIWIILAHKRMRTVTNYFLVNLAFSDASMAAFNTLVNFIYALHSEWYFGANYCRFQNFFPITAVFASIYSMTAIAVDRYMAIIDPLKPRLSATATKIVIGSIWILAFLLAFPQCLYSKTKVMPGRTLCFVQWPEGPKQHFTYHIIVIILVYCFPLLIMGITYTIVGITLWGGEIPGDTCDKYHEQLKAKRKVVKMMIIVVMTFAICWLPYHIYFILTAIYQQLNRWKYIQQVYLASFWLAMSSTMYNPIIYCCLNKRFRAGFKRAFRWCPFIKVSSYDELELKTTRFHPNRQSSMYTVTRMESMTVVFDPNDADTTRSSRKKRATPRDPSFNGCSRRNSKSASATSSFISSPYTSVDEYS", "test": "biochemical", "format": "binding", "details": "not given"}
{"compound": "CCN(C(=O)Oc1ccc(F)cc1)[C@@H]1CN(C(=O)C2CCN(c3ccc(C(N)=O)cn3)CC2)C[C@H]1c1ccc(Cl)c(F)c1", "note": "[Example 109, [(3S,4R)-1-(5′-Carbamoyl-3,4,5,6-tetrahydro-2H-[1,2′]bipyridinyl-4-carbonyl)-4-(4-chloro-3-fluoro-phenyl)-pyrrolidin-3-yl]-ethyl-carbamic acid 4-fluoro-phenyl ester]", "pKi": 8.77}
{"target": "recombinant human NK3 receptor (Homo sapiens (Human), UniProt P29371)", "test": "biochemical", "format": "binding", "details": "[3H]SR142801, membranes of HEK293 cells transiently expressing recombinant human NK3 receptor; read-out: Data Ki (hNK-3 receptor affinity)"}
{"compound": "CCN(C(=O)Oc1ccc(F)cc1)[C@@H]1CN(C(=O)C2CCN(C(=O)C3CC(F)(F)C3)CC2)C[C@H]1c1ccc(Cl)cc1", "note": "[Example 90, {(3S,4R)-4-(4-Chloro-phenyl)-1-[1-(3,3-difluoro-cyclobutanecarbonyl)-piperidine-4-carbonyl]-pyrrolidin-3-yl}-ethyl-carbamic acid 4-fluoro-phenyl ester]", "pKi": 8.62}
{"compound": "CCN(C(=O)Oc1ccc(F)cc1)[C@@H]1CN(C(=O)C2CCN(C(=O)C3CC(OC)C3)CC2)C[C@H]1c1ccc(Cl)cc1", "note": "(stereo partly drawn) [Example 91, {(3S,4R)-4-(4-Chloro-phenyl)-1-[1-(3-methoxy-cyclobutanecarbonyl)-piperidine-4-carbonyl]-pyrrolidin-3-yl}-ethyl-carbamic acid 4-fluoro-phenyl ester]", "pKi": 8.19}
{"compound": "CCN(C(=O)Oc1ccc(F)cc1)[C@@H]1CN(C(=O)C2CCN(C(=O)C3(C(F)(F)F)CCC3)CC2)C[C@H]1c1ccc(Cl)cc1", "note": "[Example 92, {(3S,4R)-4-(4-Chloro-phenyl)-1-[1-(1-trifluoromethyl-cyclobutanecarbonyl)-piperidine-4-carbonyl]-pyrrolidin-3-yl}-ethyl-carbamic acid 4-fluoro-phenyl ester]", "pKi": 8.18}
{"compound": "CCN(C(=O)Oc1ccc(F)cc1)[C@@H]1CN(C(=O)C2CCN(C(=O)CC#N)CC2)C[C@H]1c1ccc(Cl)cc1", "note": "[Example 93, {(3S,4R)-4-(4-Chloro-phenyl)-1-[1-(2-cyano-acetyl)-piperidine-4-carbonyl]-pyrrolidin-3-yl}-ethyl-carbamic acid 4-fluoro-phenyl ester]", "pKi": 8.15}
{"compound": "CCN(C(=O)Oc1ccc(F)cc1)[C@@H]1CN(C(=O)C2CCN(C(=O)C3(C#N)CC3)CC2)C[C@H]1c1ccc(Cl)cc1", "note": "[Example 94, {(3S,4R)-4-(4-Chloro-phenyl)-1-[1-(1-cyano-cyclopropanecarbonyl)-piperidine-4-carbonyl]-pyrrolidin-3-yl}-ethyl-carbamic acid 4-fluoro-phenyl ester]", "pKi": 8.11}
{"compound": "CCN(C(=O)Oc1ccc(F)cc1)[C@@H]1CN(C(=O)C2CCN(C(=O)C3(C(F)(F)F)CC3)CC2)C[C@H]1c1ccc(Cl)cc1", "note": "[Example 95, {(3S,4R)-4-(4-Chloro-phenyl)-1-[1-(1-trifluoromethyl-cyclopropanecarbonyl)-piperidine-4-carbonyl]-pyrrolidin-3-yl}-ethyl-carbamic acid 4-fluoro-phenyl ester]", "pKi": 8.21}
{"compound": "CCN(C(=O)Oc1ccc(F)cc1)[C@@H]1CN(C(=O)C2CCN(C(=O)C3CC3(F)F)CC2)C[C@H]1c1ccc(Cl)cc1", "note": "(stereo partly drawn) [Example 96, {(3S,4R)-4-(4-Chloro-phenyl)-1-[1-(2,2-difluoro-cyclopropanecarbonyl)-piperidine-4-carbonyl]-pyrrolidin-3-yl}-ethyl-carbamic acid 4-fluoro-phenyl ester]", "pKi": 8.47}
{"compound": "CCN(C(=O)Oc1ccc(F)cc1)[C@@H]1CN(C(=O)C2CCN(C(=O)C3CCOCC3)CC2)C[C@H]1c1ccc(Cl)cc1", "note": "[Example 97, {(3S,4R)-4-(4-Chloro-phenyl)-1-[1-(tetrahydro-pyran-4-carbonyl)-piperidine-4-carbonyl]-pyrrolidin-3-yl}-ethyl-carbamic acid 4-fluoro-phenyl ester]", "pKi": 8.36}
{"compound": "CCN(C(=O)Oc1ccc(F)cc1)[C@@H]1CN(C(=O)C2CCN(C(=O)C3CCOC(C)(C)C3)CC2)C[C@H]1c1ccc(Cl)cc1", "note": "(stereo partly drawn) [Example 98, {(3S,4R)-4-(4-Chloro-phenyl)-1-[1-(2,2-dimethyl-tetrahydro-pyran-4-carbonyl)-piperidine-4-carbonyl]-pyrrolidin-3-yl}-ethyl-carbamic acid 4-fluoro-phenyl ester]", "pKi": 8.33}
{"compound": "CCN(C(=O)Oc1ccc(F)cc1)[C@@H]1CN(C(=O)C2CCN(C(=O)C3CC3(C)C)CC2)C[C@H]1c1ccc(Cl)cc1", "note": "(stereo partly drawn) [Example 100, {(3S,4R)-4-(4-Chloro-phenyl)-1-[1-(2,2-dimethyl-cyclopropanecarbonyl)-piperidine-4-carbonyl]-pyrrolidin-3-yl}-ethyl-carbamic acid 4-fluoro-phenyl ester]", "pKi": 8.44}
{"compound": "CCN(C(=O)Oc1ccc(F)cc1)[C@@H]1CN(C(=O)C2CCN(C(=O)c3ccc(C(F)(F)F)cn3)CC2)C[C@H]1c1ccc(Cl)cc1", "note": "[Example 101, {(3S,4R)-4-(4-Chloro-phenyl)-1-[1-(5-trifluoromethyl-pyridine-2-carbonyl)-piperidine-4-carbonyl]-pyrrolidin-3-yl}-ethyl-carbamic acid 4-fluoro-phenyl ester]", "pKi": 7.37}
{"compound": "CCN(C(=O)Oc1ccc(F)cc1)[C@@H]1CN(C(=O)C2CCN(C(=O)c3ccc(F)cn3)CC2)C[C@H]1c1ccc(Cl)cc1", "note": "[Example 102, {(3S,4R)-4-(4-Chloro-phenyl)-1-[1-(5-fluoro-pyridine-2-carbonyl)-piperidine-4-carbonyl]-pyrrolidin-3-yl}-ethyl-carbamic acid 4-fluoro-phenyl ester]", "pKi": 8.09}
{"compound": "CCN(C(=O)Oc1ccc(F)cc1)[C@@H]1CN(C(=O)C2CCC(=O)N(C(C)C)C2)C[C@H]1c1ccc(Cl)c(F)c1", "note": "(stereo partly drawn) [Example 105, [(3S,4R)-4-(4-Chloro-3-fluoro-phenyl)-1-(1-isopropyl-6-oxo-piperidine-3-carbonyl)-pyrrolidin-3-yl]-ethyl-carbamic acid 4-fluoro-phenyl ester]", "pKi": 7.51}
{"compound": "CCN(C(=O)Oc1ccc(F)cc1)[C@@H]1CN(C(=O)C2CCN(C(=O)[C@@H]3CC(=O)N3)CC2)C[C@H]1c1ccc(F)c(F)c1", "note": "[Example 106, {(3S,4R)-4-(3,4-Difluoro-phenyl)-1-[1-((S)-4-oxo-azetidine-2-carbonyl)-piperidine-4-carbonyl]-pyrrolidin-3-yl}-ethyl-carbamic acid 4-fluoro-phenyl ester]", "pKi": 7.18}
{"compound": "CCN(C(=O)Oc1ccc(F)cc1)[C@@H]1CN(C(=O)C2CCN(C(=O)C3CCC(=O)NC3)CC2)C[C@H]1c1ccc(F)c(F)c1", "note": "(stereo partly drawn) [Example 107, {(3S,4R)-4-(3,4-Difluoro-phenyl)-1-[1-(6-oxo-piperidine-3-carbonyl)-piperidine-4-carbonyl]-pyrrolidin-3-yl}-ethyl-carbamic acid 4-fluoro-phenyl ester]", "pKi": 6.88}
{"compound": "CCN(C(=O)Oc1ccc(F)cc1)[C@@H]1CN(C(=O)C2CCN(c3ccc(Cl)cn3)CC2)C[C@H]1c1ccc(Cl)cc1", "note": "[Example 110, [(3S,4R)-4-(4-Chloro-phenyl)-1-(5′-chloro-3,4,5,6-tetrahydro-2H-[1,2′]bipyridinyl-4-carbonyl)-pyrrolidin-3-yl]-ethyl-carbamic acid 4-fluoro-phenyl ester]", "pKi": 8.32}
{"compound": "CCN(C(=O)Oc1ccc(F)cc1)[C@@H]1CN(C(=O)C2CCN(c3ccc(C(N)=O)cn3)CC2)C[C@H]1c1ccc(Cl)cc1", "note": "[Example 111, [(3S,4R)-1-(5′-Carbamoyl-3,4,5,6-tetrahydro-2H-[1,2′]bipyridinyl-4-carbonyl)-4-(4-chloro-phenyl)-pyrrolidin-3-yl]-ethyl-carbamic acid 4-fluoro-phenyl ester]", "pKi": 8.13}
{"compound": "CCN(C(=O)Oc1ccc(F)cc1)[C@@H]1CN(C(=O)C2CCN(c3ccc(Cl)cn3)CC2)C[C@H]1c1ccc(Cl)c(Cl)c1", "note": "[Example 113, [(3S,4R)-1-(5′-Chloro-3,4,5,6-tetrahydro-2H-[1,2′]bipyridinyl-4-carbonyl)-4-(3,4-dichloro-phenyl)-pyrrolidin-3-yl]-ethyl-carbamic acid 4-fluoro-phenyl ester]", "pKi": 9.30}
{"target": "recombinant human NK3 receptor (Homo sapiens (Human), UniProt P29371)", "test": "biochemical", "format": "binding", "details": "read-out: Data Ki (hNK-3 receptor affinity)"}
{"compound": "CCN(C(=O)Oc1ccc(F)cc1)[C@@H]1CN(C(=O)C2CCN(C(=O)C3CC(F)C3)CC2)C[C@H]1c1ccc(Cl)cc1", "note": "(stereo partly drawn) [Example 89, {(3S,4R)-4-(4-Chloro-phenyl)-1-[1-(3-fluoro-cyclobutanecarbonyl)-piperidine-4-carbonyl]-pyrrolidin-3-yl}-ethyl-carbamic acid 4-fluoro-phenyl ester]", "pKi": 8.48}
{"compound": "CCN(C(=O)Oc1ccc(F)cc1)[C@@H]1CN(C(=O)C2CCN(C(=O)C3(COC)CC3)CC2)C[C@H]1c1ccc(Cl)cc1", "note": "[Example 99, {(3S,4R)-4-(4-Chloro-phenyl)-1-[1-(1-methoxymethyl-cyclopropanecarbonyl)-piperidine-4-carbonyl]-pyrrolidin-3-yl}-ethyl-carbamic acid 4-fluoro-phenyl ester]", "pKi": 8.33}
{"compound": "CCN(C(=O)Oc1ccc(F)cc1)[C@@H]1CN(C(=O)C2CCN(C(=O)C3CCC(=O)NC3)CC2)C[C@H]1c1ccc(Cl)cc1", "note": "(stereo partly drawn) [Example 103, {(3S,4R)-4-(4-Chloro-phenyl)-1-[1-(6-oxo-piperidine-3-carbonyl)-piperidine-4-carbonyl]-pyrrolidin-3-yl}-ethyl-carbamic acid 4-fluoro-phenyl ester]", "pKi": 7.49}
{"compound": "CCN(C(=O)Oc1ccc(F)cc1)[C@@H]1CN(C(=O)C2CCN(C(=O)C3CCC(=O)N(C(C)C)C3)CC2)C[C@H]1c1ccc(Cl)cc1", "note": "(stereo partly drawn) [Example 104, {(3S,4R)-4-(4-Chloro-phenyl)-1-[1-(1-isopropyl-6-oxo-piperidine-3-carbonyl)-piperidine-4-carbonyl]-pyrrolidin-3-yl}-ethyl-carbamic acid 4-fluoro-phenyl ester]", "pKi": 7.75}
{"compound": "CCN(C(=O)Oc1ccc(F)cc1)[C@@H]1CN(C(=O)C2CCN(c3ccc(C(C)O)cn3)CC2)C[C@H]1c1ccc(Cl)cc1", "note": "(stereo partly drawn) [Example 108, {(3S,4R)-4-(4-Chloro-phenyl)-1-[5′-(1-hydroxy-ethyl)-3,4,5,6-tetrahydro-2H-[1,2]bipyridinyl-4-carbonyl]-pyrrolidin-3-yl}-ethyl-carbamic acid 4-fluoro-phenyl ester]", "pKi": 8.33}
{"compound": "CCN(C(=O)Oc1ccc(F)cc1)[C@@H]1CN(C(=O)C2CCN(c3ccc(F)cn3)CC2)C[C@H]1c1ccc(Cl)c(Cl)c1", "note": "[Example 112, [(3S,4R)-4-(3,4-Dichloro-phenyl)-1-(5′-fluoro-3,4,5,6-tetrahydro-2H-[1,2′]bipyridinyl-4-carbonyl)-pyrrolidin-3-yl]-ethyl-carbamic acid 4-fluoro-phenyl ester]", "pKi": 9.10}
